Reference: EP4520331A1, “PHARMACEUTICAL COMPOSITION COMPRISING TRPV4 INHIBITOR FOR USE IN THE PREVENTION OR TREATMENT OF CEREBRAL CAVERNOUS MALFORMATIONS (CCM)” (Université Grenoble Alpes, priority 2023, dated 2025)

Assays:
Assay type in all cases: cell-based, Human
[1] = tested on: CCM2-depleted endothelial cells; test: Gelatin degradation assay (ECM degradation); details: 800 nM; siCCM2 HUVEC; Figure 3B
Experimental: Pooled Human Umbilical Vein Endothelial Cells (HUVEC) were obtained from Pelobiotech. Upon reception, HUVEC at P0 were expanded over 2 passages in 100µg/ml collagen 1 (from rat tail, BD) coated flasks in complete EGM-2 medium (Lonza) supplemented with 100 U/ml penicillin and 100 µg/ml streptomycin at 37°C in a 5% CO2 - 3% O2 humidified chamber. HUVEC at passage 3 were transfected twice at 24 h-intervals with 30 nM siRNA and Lipofectamine RNAi max (Life Technologies, ref. 13778-150) according to the manufacturer's instructions in OptiMEM at 37°C in a regular 5% CO2 in a humidified chamber. […]
Coverslips in 24 well-plates were coated with gelatin-Alexa488 dye as previously described (70). siCT and siCCM2 HUVEC were seeded 24h after the second siRNA transfection at 3x10^4/well in OptiMEM medium in presence or absence of the calcium channels inhibitors overnight at 37°C in a 5% CO2 incubator. […] For a quantitative analysis of the degradative skill of siRNA transfected cells, 10 images per condition were randomly acquired and were converted to binary images using B&W thresholding on Imaged. The total area of the black zones corresponding to the total area of degradation of the fluorescent gelatin was measured.

[2] = tested on: CCM2-depleted endothelial cells; test: xCELLigence proliferation assay (RTCA impedance); details: 400nM added to siCCM2 ECs; RTCA xCelligence impedance over 24h; Figure 1B
Experimental: (§1) Pooled Human Umbilical Vein Endothelial Cells (HUVEC) were obtained from Pelobiotech. Upon reception, HUVEC at P0 were expanded over 2 passages in 100µg/ml collagen 1 (from rat tail, BD) coated flasks in complete EGM-2 medium (Lonza) supplemented with 100 U/ml penicillin and 100 µg/ml streptomycin at 37°C in a 5% CO2 - 3% O2 humidified chamber. HUVEC at passage 3 were transfected twice at 24 h-intervals with 30 nM siRNA and Lipofectamine RNAi max (Life Technologies, ref. 13778-150) according to the manufacturer's instructions in OptiMEM at 37°C in a regular 5% CO2 in a humidified chamber. For double transfections, 30 nM of each siRNA duplexes (Dharmacon smartpool ON-TARGET plus Thermo Scientific) was used: Non-targeting siRNA #1 (ref. D-001810-01), CCM2 siRNA (ref. L-014728-01) and TRPV4 siRNA (ref. L-004195-00).
Proliferation assay was performed using the xCELLigence Real-Time Cell Analysis (RTCA) DP instrument in combination with E-plate 16 (ACEA Biosciences) coated with 100µL of 100µg/mL collagen 1 (from rat tail) for 30 min at 37°C and washed 2 times with PBS 1X. 50 µL of complete EBM-2 medium was added and baseline without cells was made with RTCA software. 2.5x103 transfected HUVEC (4 wells per condition) were seeded 24h after the second round of transfection in 50µL of complete EBM-2-medium. […] Impedance measurements were recorded every 5 min during 24h. […]

[3] = tested on: CCM2-depleted endothelial cells; test: Ki67 immunofluorescence staining (proliferative marker); details: 400nM added to siCCM2 ECs; Figure 1E
Experimental: as §1
Transfected HUVEC were seeded at 3x10^4 cells (sparsed, for Ki67 staining) or […] (confluent, for VE-cadherin staining) in 24-well plates on coverslips coated with 10 µg/ml fibronectin (from human plasma, Sigma Aldrich) and incubated overnight (Ki67 experiment) or for 48h (VE-cadherin experiment) in complete EBM-2 medium in presence or absence of the calcium channels inhibitors dissolved in DMSO. […] The percentage of Ki67 positive cells was counted manually out of more than 130 cells total.

## O=C(NC1(c2ccccc2)CC1)c1c(CN2CCC(N3CCCCC3)CC2)c(-c2cccc(C(F)(F)F)c2)nc2cc(Br)ccc12 [GSK2193874, 3-([1,4'-Bipiperidin]-1'-ylmethyl)-7-bromo-N-(1-phenylcyclopropyl)-2-[3-(trifluoromethyl)phenyl]-4-quinolinecarboxamide]
[1]
  CCM2-depleted ECs capacity to degrade the ECM such as gelatin: inhibits
[2]
  proliferation rate: restoration
[3]
  proliferative marker Ki67: restoration
